Literature values in patent US7910108B2, “Sheddase inhibitors combined with CD30-binding immunotherapeutics for the treatment of CD30 positive diseases” (Incyte Corporation, priority 2006, dated 2011).
Like-named read-outs stand apart in the source and are kept apart here.

Key:
[1] = tested on: CD30; conditions: in vivo, rodent; administered concomitantly with anti-CD30 immunotoxins
[2] = tested on: CD30; conditions: in vitro; combined with anti-CD30 immunotoxins

CO[C@H](C(=O)NO)[C@@H](CC(C)C)C(=O)N[C@H](C(=O)Nc1ccccn1)C(C)(C)C [BB-3644]
effectiveness of combination versus immunotoxin alone [1]: substantially more effective
effectiveness of combination versus immunotoxin alone [2]: substantially more effective
